Experimental data reported in patent publication US9409884B2 (Rigel Pharmaceuticals, Inc., priority 2012, dated 2016).

biological target: AMPK; assay: AMPK activation, enzyme-linked immunosorbent assay; type: biochemical; conditions: Table 8, compounds of Table 1
Protocol: Compounds of Table 1 were assayed for their ability to activate AMPK using an enzyme-linked immunosorbent assay.
Compounds of Table 2 were assayed for their ability to activate AMPK using an enzyme-linked immunosorbent assay.
Compounds of Table 3 were assayed for their ability to activate AMPK using an enzyme-linked immunosorbent assay.
Compounds of Table 4 were assayed for their ability to activate AMPK using an enzyme-linked immunosorbent assay.
Compounds of Table 5 were assayed for their ability to activate AMPK using an enzyme-linked immunosorbent assay.
Compounds of Table 6 were assayed for their ability to activate AMPK using an enzyme-linked immunosorbent assay.
Compounds of Table 7 were assayed for their ability to activate AMPK using an enzyme-linked immunosorbent assay.

EC50 [nM]	SMILES
100 to 500	N#Cc1ccc(N2CCC(Oc3ccc(C(=O)NC4CCN(Cc5ccncc5)CC4)nc3)CC2)cc1 [Compound 1-1, 5-(1-(4-cyanophenyl)piperidin-4-yloxy)-N-(1-(pyridin-4-ylmethyl)piperidin-4-yl)picolinamide]
< 100	O=C(NC1CCN(Cc2ccncc2)CC1)c1ccc(OC2CCN(c3ccc(C(F)(F)F)cc3)CC2)cn1 [Compound 1-3, N-(1-(pyridin-4-ylmethyl)piperidin-4-yl)-5-(1-(4-(trifluoromethyl)phenyl)piperidin-4-yloxy)picolinamide]
< 100	O=C(NC1CCN(Cc2cccnc2)CC1)c1ccc(OC2CCN(c3ccc(C(F)(F)F)cc3)CC2)cn1 [Compound 1-5, N-(1-(pyridin-3-ylmethyl)piperidin-4-yl)-5-(1-(4-(trifluoromethyl)phenyl)piperidin-4-yloxy) picolinamide]
< 100	COC(=O)c1ccc(CN2CCC(NC(=O)c3ccc(OC4CCN(c5ccc(C#N)cc5)CC4)cn3)CC2)cc1 [Compound 1-7, methyl 4-((4-(5-(1-(4-cyanophenyl)piperidin-4-yloxy)picolinamido)piperidin-1-yl)methyl)benzoate]
< 100	O=C(NC1CCN(Cc2ccc(F)cc2)CC1)c1ccc(OC2CCN(c3ccc(C(F)(F)F)cc3)CC2)nc1 [Compound 1-11, N-(1-(4-fluorobenzyl)piperidin-4-yl)-6-(1-(4-(trifluoromethyl)phenyl)piperidin-4-yloxy)nicotinamide]
500 to 1000	CC(C)(C)OC(=O)N1CCC(NC(=O)c2cc(OC3CCN(c4ccc(C(F)(F)F)cc4)CC3)ccn2)CC1 [Compound 1-12, tert-butyl 4-(4-(1-(4-(trifluoromethyl)phenyl)piperidin-4-yloxy)picolinamido) piperidine-1-carboxylate]
1000 to 5000	O=C(NC1CCNCC1)c1ccnc(OC2CCN(c3ccc(C(F)(F)F)cc3)CC2)c1 [Compound 1-19, N-(piperidin-4-yl)-2-(1-(4-(trifluoromethyl)phenyl)piperidin-4-yloxy) isonicotinamide]
100 to 500	N#Cc1ccc(CN2CCC(NC(=O)c3ccnc(OC4CCN(c5ccc(C(F)(F)F)cc5)CC4)c3)CC2)cc1 [Compound 1-21, N-(1-(4-cyanobenzyl)piperidin-4-yl)-2-(1-(4-(trifluoromethyl)phenyl)piperidin-4-yloxy) isonicotinamide]
100 to 500	CC(C)(C)OC(=O)N1CC[C@@H](NC(=O)c2ccc(OC3CCN(c4ccc(C(F)(F)F)cc4)CC3)cn2)C1 [Compound 1-23, (R)-tert-butyl 3-(5-(1-(4-(trifluoromethyl)phenyl)piperidin-4-yloxy)picolinamido) pyrrolidine-1-carboxylate]
5000 to 10000	O=C(N[C@@H]1CCNC1)c1ccc(OC2CCN(c3ccc(C(F)(F)F)cc3)CC2)cn1 [Compound 1-24, (R)-N-(pyrrolidin-3-yl)-5-(1-(4-(trifluoromethyl)phenyl)piperidin-4-yloxy) picolinamide]
> 10000	O=C(N[C@H]1CCNC1)c1ccc(OC2CCN(c3ccc(C(F)(F)F)cc3)CC2)cn1 [Compound 1-27, (S)-N-(pyrrolidin-3-yl)-5-(1-(4-(trifluoromethyl)phenyl)piperidin-4-yloxy)picolinamide]
< 100	N#Cc1ccc(CN2CCC(NC(=O)c3cc(OC4CCN(c5ccc(C(F)(F)F)cc5)CC4)ccn3)CC2)cc1 [Compound 1-28, N-(1-(4-cyanobenzyl)piperidin-4-yl)-4-(1-(4-(trifluoromethyl)phenyl)piperidin-4-yloxy)picolinamide]

Further lines, the compound ahead of its results:

SMILES	EC50 [nM]
N#Cc1ccc(CN2CCC(NC(=O)c3ccc(OC4CCN(c5ccc(C#N)cc5)CC4)cn3)CC2)cc1 [Compound 1-2, N-(1-(4-cyanobenzyl)piperidin-4-yl)-5-(1-(4-cyanophenyl)piperidin-4-yloxy) picolinamide]	< 100
N#Cc1ccc(CN2CCC(NC(=O)c3ccc(OC4CCN(c5ccc(C(F)(F)F)cc5)CC4)cn3)CC2)cc1 [Compound 1-4, N-(1-(4-cyanobenzyl)piperidin-4-yl)-5-(1-(4-(trifluoromethyl)phenyl)piperidin-4-yloxy) picolinamide]	< 100
N#Cc1ccc(N2CCC(Oc3ccc(C(=O)NC4CCN(Cc5cccnc5)CC4)nc3)CC2)cc1 [Compound 1-6, N-(1-(pyridin-3-ylmethyl)piperidin-4-yl)-5-(1-(4-cyanophenyl)piperidin-4-yloxy)picolinamide]	100 to 500
COC(=O)c1ccc(CN2CCC(NC(=O)c3ccc(OC4CCN(c5ccc(C(F)(F)F)cc5)CC4)cn3)CC2)cc1 [Compound 1-8, methyl 4-((4-(5-(1-(4-(trifluoromethyl)phenyl)piperidin-4-yloxy)picolinamido)piperidin-1-yl)methyl)benzoate]	< 100
CC(C)(C)OC(=O)N1CCC(NC(=O)c2ccc(OC3CCN(c4ccc(C(F)(F)F)cc4)CC3)nc2)CC1 [Compound 1-9, tert-butyl 4-(6-(1-(4-(trifluoromethyl)phenyl)piperidin-4-yloxy)nicotinamido) piperidine-1-carboxylate]	100 to 500
O=C(NC1CCN(Cc2ccncc2)CC1)c1ccc(OC2CCN(c3ccc(C(F)(F)F)cc3)CC2)nc1 [Compound 1-10, N-(1-(pyridin-4-ylmethyl)piperidin-4-yl)-6-(1-(4-(trifluoromethyl)phenyl)piperidin-4-yloxy)nicotinamide]	< 100
O=C(NC1CCN(Cc2ccncc2)CC1)c1cc(OC2CCN(c3ccc(C(F)(F)F)cc3)CC2)ccn1 [Compound 1-13, N-(1-(pyridin-4-ylmethyl)piperidin-4-yl)-4-(1-(4-(trifluoromethyl)phenyl)piperidin-4-yloxy)picolinamide]	100 to 500
O=C(NC1CCN(Cc2ccncc2)CC1)c1cncc(OC2CCN(c3ccc(C(F)(F)F)cc3)CC2)c1 [Compound 1-14, N-(1-(pyridin-4-ylmethyl)piperidin-4-yl)-5-(1-(4-(trifluoromethyl)phenyl)piperidin-4-yloxy)nicotinamide]	< 100
CC(C)(C)OC(=O)N1CCC(NC(=O)c2ccnc(OC3CCN(c4ccc(C(F)(F)F)cc4)CC3)c2)CC1 [Compound 1-15, tert-butyl 4-(2-(1-(4-(trifluoromethyl)phenyl)piperidin-4-yloxy)isonicotinamido) piperidine-1-carboxylate]	1000 to 5000
O=C(NC1CCN(Cc2ccc(F)cc2)CC1)c1cncc(OC2CCN(c3ccc(C(F)(F)F)cc3)CC2)c1 [Compound 1-16, N-(1-(4-fluorobenzyl)piperidin-4-yl)-5-(1-(4-(trifluoromethyl)phenyl)piperidin-4-yloxy)nicotinamide]	< 100
N#Cc1ccc(CN2CCC(NC(=O)c3cncc(OC4CCN(c5ccc(C(F)(F)F)cc5)CC4)c3)CC2)cc1 [Compound 1-17, N-(1-(4-cyanobenzyl)piperidin-4-yl)-5-(1-(4-(trifluoromethyl)phenyl)piperidin-4-yloxy)nicotinamide]	< 100
O=C(NC1CCN(Cc2cccnc2)CC1)c1cncc(OC2CCN(c3ccc(C(F)(F)F)cc3)CC2)c1 [Compound 1-18, N-(1-(pyridin-3-ylmethyl)piperidin-4-yl)-5-(1-(4-(trifluoromethyl)phenyl)piperidin-4-yloxy)nicotinamide]	< 100
O=C(NC1CCN(Cc2ccncc2)CC1)c1ccnc(OC2CCN(c3ccc(C(F)(F)F)cc3)CC2)c1 [Compound 1-20, N-(1-(pyridin-4-ylmethyl)piperidin-4-yl)-2-(1-(4-(trifluoromethyl)phenyl)piperidin-4-yloxy) isonicotinamide]	500 to 1000
O=C(NC1CCN(Cc2ccc(F)cc2)CC1)c1ccnc(OC2CCN(c3ccc(C(F)(F)F)cc3)CC2)c1 [Compound 1-22, N-(1-(4-fluorobenzyl)piperidin-4-yl)-2-(1-(4-(trifluoromethyl)phenyl)piperidin-4-yloxy) isonicotinamide]	1000 to 5000
O=C(N[C@@H]1CCN(Cc2ccncc2)C1)c1ccc(OC2CCN(c3ccc(C(F)(F)F)cc3)CC2)cn1 [Compound 1-25, (R)-N-(1-(pyridin-4-ylmethyl)pyrrolidin-3-yl)-5-(1-(4-(trifluoromethyl)phenyl)piperidin-4-yloxy)picolinamide]	100 to 500
CC(C)(C)OC(=O)N1CC[C@H](NC(=O)c2ccc(OC3CCN(c4ccc(C(F)(F)F)cc4)CC3)cn2)C1 [Compound 1-26, (S)-tert-butyl 3-(5-(1-(4-(trifluoromethyl)phenyl)piperidin-4-yloxy)picolinamido) pyrrolidine-1-carboxylate]	100 to 500

same assay, conditions: Table 14, compounds of Table 7

EC50 [nM]	SMILES
< 1000	N#Cc1ccc(CN2CC[C@@H](NC(=O)c3ccc(C(=O)N4CCC(Oc5ccc(S(=O)(=O)C(F)(F)F)cc5)CC4)nc3)[C@H](F)C2)cc1 (relative stereo) [Compound 7-119, N-((trans)-1-(4-cyanobenzyl)-3-fluoropiperidin-4-yl)-6-(4-(4-(trifluoromethylsulfonyl)phenoxy)piperidine-1-carbonyl)nicotinamide]
< 1000	COc1ccc(C(=O)C2CCN(C(=O)c3ccc(C(=O)N[C@H]4CCN(Cc5ccc(C#N)cc5)C[C@@H]4F)cn3)CC2)cc1 (single isomer, unassigned) [Compound 7-107]

More lines, now with the values behind:

SMILES	EC50 [nM]
COc1ccc(C(=O)C2CCN(C(=O)c3ccc(C(=O)N[C@H]4CCN(Cc5ccc(OC(F)(F)F)cc5)C[C@H]4F)cn3)CC2)cc1 (relative stereo) [Compound 7-123, N-((cis)-3-fluoro-1-(4-(trifluoromethoxy)benzyl)piperidin-4-yl)-6-(4-(4-methoxybenzoyl)piperidine-1-carbonyl)nicotinamide]	< 1000
COc1ccc(C(=O)C2CCN(C(=O)c3ccc(C(=O)N[C@@H]4CCN(Cc5ccc(C#N)cc5)C[C@H]4F)cn3)CC2)cc1 (single isomer, unassigned) [Compound 7-106]	< 1000
